Article PMC9751883, “Discovery of new potent lysine specific histone demythelase-1 inhibitors (LSD-1) using structure based and ligand based molecular modelling and machine learning” (RSC Advances, 2022)
Where two headings read alike, the source gives them in different places.

Legend:
[1] = system: neuroblastoma SH-SY5Y cells; test: MTT cell viability assay on SH-SY5Y cells; format: cell-based; conditions: for Experimental % inhibition Without verapamil At 50 μM: 72 h
Procedure: The anticancer effects of captured hits were evaluated against SH-SY5Y (Neuroblastoma, CRL-2266), Panc-1 (pancreatic carcinoma, CRL-1469) and U-87 MG (glioblastoma, HTB-14) cells. Details about growth conditions, cell harvesting and counting are available in ESI Sections SM12–SM14. ^† The cancer killing profiles of tested compounds were evaluated colorimetrically using the Cell Titer Non-Radioactive Cell Proliferation Assay Kit® (Promega, USA) based on the reduction of a yellow tetrazole, 3-(4,5-Dimethylthiazol-2-yl)-2, 5-diphenyl tetrazolium bromide (MTT), to a purple formazan, a process that takes place in the mitochondria of viable cells (details are in ESI Sections SM12–SM14 ^†).[98,99]
As SH-SY5Y cells highly express ATP binding cassette subfamily B member 1 (ABCB1, MDR1, normalized expression, NX: 36.8%),[100] cell resistance were reversed using verapamil (10 μM), which was added with each hit, and incubated with cells for 72 hours for subsequent MTT viability assay.[101,102] Finally, MTT cell proliferation assay results were analysed using GraphPad Prism 8.0 (GraphPad Software, Inc). […] Measurements were repeated in triplicates.
• MTT Cell Proliferation Assay
Inhibitory effect of the hits on SH-SY5Y cells were evaluated by a colorimetric method of CellTiter Non-Radioactive Cell Proliferation Assay Kit® (Promega, USA), based on the reduction of a yellow tetrazole, 3-(4,5-Dimethylthiazol-2-yl)-2, 5-diphenyl tetrazolium bromide (MTT), to a purple formazan, a process that take place in the mitochondria of viable cells.
Briefly, the cells were seeded onto 96-well plates (Greiner, Germany) at a concentration of 2×10^4 cells/well and incubated for 24 hours through which cells are attached to the walls of the wells.
Subsequently, hits under concern were screened on 50 µM and 10 µM concentrations (100 μL/ well). Each concentration was added in triplicates, and every plate contained a control of cells in plain medium. The cells were then incubated at 37 °C for 72 hours. After incubation, the media were aspirated from the wells and replaced by fresh media (100 μL/ well), and 15 µl MTT dye solution. The plates were incubated at 37 °C for four hours, and then 50 μL of solublization/stop solution was added to each well. Optical density (OD) at 560 nm wavelength was recorded one hour later using a 96-well plate reader (GloMax, Promega).
• Reversal of SH-SY5Y resistance by verapamil
As SH-SY5Y cells are highly expressing ATP binding cassette subfamily B member 1 (ABCB1, MDR1) (Normalized expression, NX: 36.8%) 100, cell resistance were reversed using 10 µM concentration of verapamil added with each hit and incubated with cells for 72 hours for subsequent MTT viability assay 101,102.

LSD-1 = molecular target: T1, LSD-1 (Homo sapiens, UniProt O60341); conditions: cited from earlier work; for IC50: read-out: IC50
T1 construct: purchased Cayman Chemical-USA 700120

With `CC1(C)N=C(N)N=C(N)N1c1ccc(OCC(=O)Nc2cccc(S(=O)(=O)F)c2)c(Cl)c1` [Hit 289] the “Experimental % inhibition Without verapamil At 50 μM” value [1] was 12.67%.

With `CC1(C)N=C(N)N=C(N)N1c1ccc(C[C@H](CCc2ccccc2)C(=O)Nc2ccc(S(=O)(=O)F)cc2)cc1` [Hit 303] the “Experimental % inhibition Without verapamil At 50 μM” value [1] was 51.67%.

In the case of `Cc1ccc(CN(CC(=O)N2CCC(N)CC2)c2ccc(C#N)cc2)cc1` [Cpd 219], the IC50 (LSD-1; Table SM1) is listed as 1.3 µM.

For `Cn1c(C(=O)Nc2ccccc2COc2ccc(OC3CCNCC3)cc2)cc2sccc21` [Cpd 236], the IC50 (LSD-1; Tables SM1 and SM2) is listed as 0.094 µM.

For `Cn1c(C(=O)Nc2cccc(COc3ccc(OC4CCNCC4)cc3)c2)cc2sccc21` [Cpd 230], the IC50 (LSD-1; Tables SM1 and SM2) is listed as 0.162 µM and the “Ki or IC50” value (LSD-1; potent inhibitors selected for docking, ref Table SM1) is listed as at most 0.2 µM.

In the case of `Cn1c(C(=O)Nc2ccccc2CCc2ccc(OC3CCNCC3)cc2)cc2sccc21` [Cpd 237], the IC50 (LSD-1; Tables SM1 and SM2) is listed as 0.177 µM.

In the case of `Cc1cc(=O)oc2cc(OC(=O)C(CCCCN)NC(=O)OCc3ccccc3)ccc12` (centres unmarked) [Hit 307], the “Experimental % inhibition Without verapamil At 50 μM” value [1] is reported as 36.37%.

For `O=C1NC(=O)N(c2ccc(Br)cc2)C(=O)C1=Cc1ccc(O)c(O)c1` [Cpd 212], the IC50 (LSD-1; Table SM1) is listed as 0.3 µM.

In the case of `CC(=O)c1csc(NC(=O)Nc2ccccc2)n1` [Cpd 281], the IC50 (LSD-1; Table SM1) is given as 188 µM.

For `COc1ccc(C=C2C(=O)NC(=O)N(c3ccc(Br)cc3)C2=O)cc1O` [Cpd 214], the IC50 (LSD-1; Table SM1) is listed as 3.6 µM.

For `CC1(C)N=C(N)N=C(N)N1c1ccc(OCC(=O)Nc2ccc(S(=O)(=O)F)cc2Cl)c(Cl)c1` [Hit 292], the “Experimental % inhibition Without verapamil At 50 μM” value [1] was 27.42%.

In the case of `Cc1cc(NC(=O)CCc2ccc(N3C(N)=NC(N)=NC3(C)C)cc2)ccc1S(=O)(=O)O` [Hit 296], the “Experimental % inhibition Without verapamil At 50 μM” value [1] is reported as 36.04%.

In the case of `Cc1ccc(-c2ncc(OCC3CCNCC3)cc2-c2ccc(C(=O)N3CCNCC3)cc2)cc1` [Cpd 264], the Ki (LSD-1; Table SM1) is listed as 50 µM.

For `Cc1ccc(-c2ncc(OCC3CCNCC3)cc2-c2ccc(C(=O)N3CCOCC3)cc2)cc1` [Cpd 263], the Ki (LSD-1; Table SM1) is listed as 50 µM.

For `Cc1ccc(NC(=O)CCc2ccc(N3C(N)=NC(N)=NC3(C)C)cc2)cc1S(=O)(=O)F` [Hit 306], the “Experimental % inhibition Without verapamil At 50 μM” value [1] was 34.55%.

In the case of `CC(=NNC(=O)c1cccc(S(=O)(=O)N2CCOCC2)c1)c1cccnc1` [Cpd 275], the IC50 (LSD-1; Table SM1) is given as 3 µM.

For `COc1ccc(N2C(=O)NC(=O)C(=Cc3ccc(O)c(O)c3)C2=O)cc1` [Cpd 213], the IC50 (LSD-1; Table SM1) is given as 3.1 µM.

In the case of `O=C1NC(=S)N(c2ccc(Br)cc2)C(=O)C1=Cc1ccc(O)c(O)c1` [Cpd 216], the IC50 (LSD-1; Table SM1) is listed as 0.41 µM.

In the case of `Cc1ccc([C@@H](Cc2ccc(N3C(N)=NC(N)=NC3(C)C)cc2)C(=O)Nc2ccc(S(=O)(=O)F)cc2)cc1` [Hit 299], the “Experimental % inhibition Without verapamil At 50 μM” value [1] is reported as 43.36%.

`O=C(NCCCCCCCCCCNC(=O)Nc1cccc(C2=NCC(O)CN2)c1)Nc1cccc(C2=NCC(O)CN2)c1` (centres unmarked) [Hit 286] gave an IC50 ([1]; in presence of verapamil (10 μM), read-out: In vitro IC50) of 7.62 ± 0.97 µM.

With `CC1(C)N=C(N)N=C(N)N1c1ccc(OCc2ccc(C(=O)Nc3cccc(S(=O)(=O)F)c3)cc2)c(Cl)c1` [Hit 297] the “Experimental % inhibition Without verapamil At 50 μM” value [1] was 30.01%.

In the case of `CC(=O)c1csc(NC(=O)c2ccccc2)n1` [Cpd 280], the IC50 (LSD-1; Table SM1) is given as 188 µM.

For `COc1ccc(C=C2C(=O)NC(=O)N(c3ccc(Br)cc3)C2=O)c(OC)c1OC` [Cpd 215], the IC50 (LSD-1; Table SM1) is given as 3.6 µM.

For `COc1ccc(CC2C(=O)NC(=O)N(c3ccc(Br)cc3)C2=O)cc1OC` (centres unmarked) [Cpd 217], the IC50 (LSD-1; Table SM1) is listed as 75 µM.

In the case of `CC(=NNC(=O)c1cccc(S(=O)(=O)N2CCOCC2)c1)c1cccc2ccccc12` [Cpd 272], the IC50 (LSD-1; Table SM1) is listed as 10 µM.

In the case of `COCc1cccc(NC(=O)c2cc3sccc3n2C)c1COc1ccc(OCC2CCNC2)cc1` (centres unmarked) [Cpd 244], the IC50 (LSD-1; Tables SM1 and SM2) is given as 0.0084 µM.

In the case of `Cn1c(C(=O)Nc2ccccc2)nc2sccc21` [Cpd 228], the IC50 (LSD-1; Tables SM1 and SM2) is listed as 100 µM.

For `CC(=NNC(=O)c1cccc(S(=O)(=O)N2CCOCC2)c1)c1cc(Cl)ccc1O` [Cpd 273], the IC50 (LSD-1; Table SM1) is given as 0.013 µM.

In the case of `Cc1ccc(S(=O)(=O)N(CC(=O)N[C@@H]2CN3CCC2CC3)c2ccc(C#N)cc2)cc1` [Cpd 218], the IC50 (LSD-1; Table SM1) is given as 14.2 µM.

In the case of `N#Cc1ccc(N(CC(=O)N2CCC(N)CC2)Cc2ccccc2)cc1` [Cpd 220], the IC50 (LSD-1; Table SM1) is given as 4.1 µM.

In the case of `CCN(CC)CCSCCCNc1cc(C)nc2c1ccc1c2ccc2c(NCCCSCCN(CC)CC)cc(C)nc21` [Hit 308], the “Experimental % inhibition Without verapamil At 50 μM” value [1] is reported as 85.37%.
